Counter-ions that a name gives are not always drawn. Like-named read-outs stand apart in the source and are kept apart here. Marks after values point to notes of the source that are not given here.
Experiment: Plasma pharmacokinetics and brain distribution after single IV, IP and oral administration
Type: in vivo
Details: male, C57BL/6, mouse
Experimental: (§1) The objective of this study was to investigate the plasma pharmacokinetics and brain distribution of Compound (14 in male C57BL/6 mice following a single intravenous, intraperitoneal and oral administration. A group of sixty-three male mice were divided into three groups (Group 1: 2 mg/kg/IV; Group 2: 10 mg/kg/IP and Group 3: 10 mg/kg/PO) with each group comprising of twenty-one mice.
Animals in Group 1 were administered intravenously with Compound 15 solution formulation in 5% NMP, 5% Solutol HS-15, 30% PEG-400 and 60% Captisol (20% w/v) at 2 mg/kg dose. […] Considering mortality intravenous dose was reduced to 2 mg/kg.
Animals in Group 2 and 3 were administered with Compound 15 solution formulation in 5% NMP, 5% Solutol HS-15, 30% PEG-400 and 60% Captisol (20% w/v) at a dose of 10 mg/kg by intraperitoneal and oral route respectively.
(§2) Blood samples (approximately 60 μL) were collected under light isoflurane anesthesia from retro orbital plexus from a set of three mice at 0.08, 0.35, 1, 3, 6, 12 and 24 hr. Plasma samples were separated by centrifugation of whole blood and stored below −70±10° C. until bioanalysis. Immediately after collection of blood, brain samples were collected from set of three mice at each time point. Brain samples were homogenized using ice-cold phosphate buffer saline (pH-7.4) in a ratio of 2 (buffer):1(brain); and homogenates were stored below −70±10° C. until analysis. Total homogenate volume was three times the brain weight. All samples were processed for analysis by protein precipitation using acetonitrile and analyzed with fit-for-purpose LC/MS/MS method (LLOQ2.00 ng/mL for plasma and 3.00 ng/g for brain). Pharmacokinetic parameters were calculated using the non-compartmental analysis tool of Phoenix WinNonlin® (Version 7.0). Pharmacokinetic parameters of Compound 15 are summarized below.
as §1, with “Compound 16” for “Compound (14”, “1: 10” for “1: 2”
Animals in Group 1 were administered intravenously with Compound 16 solution formulation in 5% NMP, 5% Solutol HS-15 and 90% normal saline at 10 mg/kg dose.
Animals in Group 2 and 3 were administered with Compound 16 solution formulation in 5% NMP, 5% Solutol HS-15 and 90% normal saline at a dose of 10 mg/kg by intraperitoneal and oral route respectively.
as §2, with “(LLOQ—1.00” for “(LLOQ2.00”, “16” for “15”
as §1, with “17” for “(14”, “mice. […]” for “mice.”

[1] = brain, ip, 10 mg/kg, IP 10 mg/kg, read-out: Brain-to-plasma ratio
[2] = brain, po, 10 mg/kg, PO 10 mg/kg, read-out: Brain-to-plasma ratio
[3] = brain/plasma, iv, 10 mg/kg, IV 10 mg/kg, read-out: Brain-to-plasma ratio
[4] = in vivo, ip, 10 mg/kg, Brain concentration, individual animal
[5] = in vivo, ip, 10 mg/kg, Mean brain conc.
[6] = in vivo, ip, 10 mg/kg, Mean plasma conc.
[7] = in vivo, ip, 10 mg/kg, Plasma concentration, individual animal
[8] = in vivo, iv, 10 mg/kg, Brain concentration, individual animal
[9] = in vivo, iv, 10 mg/kg, Mean brain conc.
[10] = in vivo, iv, 10 mg/kg, Mean plasma conc.
[11] = in vivo, iv, 10 mg/kg, Plasma concentration, individual animal
[12] = in vivo, po, 10 mg/kg, Brain concentration, individual animal
[13] = in vivo, po, 10 mg/kg, Mean brain conc.
[14] = in vivo, po, 10 mg/kg, Mean plasma conc.
[15] = in vivo, po, 10 mg/kg, Plasma concentration, individual animal

## Cc1nc2ccccn2c1-c1csc(Nc2ccc3c(c2)OC(F)(F)O3)n1 [Compound 16, N-(2,2-difluorobenzo[d][1,3]dioxol-5-yl)-4-(2-methylimidazo[1,2-a]pyridin-3-yl)thiazol-2-amine hydrochloride]
Brain and plasma, iv, 10 mg/kg, IV 10 mg/kg, read-out: Brain-to-plasma ratio
  Kp at 3 h: 1.6
[1]
  Kp at 0.08 h: 0.78
  Kp at 0.35 h: 1.6
  Kp at 1 h: 2.01
  Kp at 3 h: 4.34
brain, ip, 10 mg/kg, IP 10 mg/kg, read-out: brain-to-plasma ratio, range over time
  Kp: 0.78 to 4.34
brain, iv, 10 mg/kg, IV 10 mg/kg, read-out: brain-to-plasma ratio, range over time
  Kp: 0.96 to 2.78
[2]
  Kp at 0.08 h: 1.07
  Kp at 0.35 h: 1.83
  Kp at 1 h: 1.67
  Kp at 3 h: 1.73
brain, po, 10 mg/kg, PO 10 mg/kg, 6 hr, read-out: Brain-to-plasma ratio
  Kp at 6 h: 1.81
brain, po, 10 mg/kg, PO 10 mg/kg, read-out: brain-to-plasma ratio, range over time
  Kp: 1.07 to 1.81
brain, po, 10 mg/kg, summary data, read-out: Brain to plasma ratio following a single oral dose
  Kp: 1.81
[3]
  Kp at 0.08 h: 1.05
  Kp at 0.35 h: 0.96
  Kp at 1 h: 2.78
In vivo, ip, 10 mg/kg
  Brain concentrations quantifiable up to: up to 3 hr
  Plasma concentrations quantifiable up to: up to 3 hr
In vivo, ip, 10 mg/kg, 6 h
  Brain concentration, individual animal: 0.00 ng/g
  Plasma concentration, individual animal: 0.00 ng/mL
In vivo, ip, 10 mg/kg, 12 h
  Brain concentration, individual animal: 0.00 ng/g
  Plasma concentration, individual animal: 0.00 ng/mL
In vivo, ip, 10 mg/kg, 24 h
  Brain concentration, individual animal: 0.00 ng/g
  Plasma concentration, individual animal: 0.00 ng/mL
[4]
  concentration at 6 h: 0 ng/g
  concentration at 12 h: 0 ng/g
  concentration at 24 h: 0 ng/g
[5]
  concentration at 0.08 h: 558 ng/g
  concentration at 0.35 h: 680 ng/g
  concentration at 1 h: 159 ng/g
  concentration at 3 h: 6.21 ng/g
  concentration at 6 h: 0 ng/g
  concentration at 12 h: 0 ng/g
  concentration at 24 h: 0 ng/g
[6]
  concentration at 0.08 h: 713 ng/mL
  concentration at 0.35 h: 426 ng/mL
  concentration at 1 h: 79.1 ng/mL
  concentration at 3 h: 1.43 ng/mL
  concentration at 6 h: 0 ng/mL
  concentration at 12 h: 0 ng/mL
  concentration at 24 h: 0 ng/mL
[7]
  concentration at 0.08 h: 688 ng/mL
  concentration at 0.35 h: 391 ng/mL
  concentration at 1 h: 62 ng/mL
  concentration at 6 h: 0 ng/mL
  concentration at 12 h: 0 ng/mL
  concentration at 24 h: 0 ng/mL
In vivo, iv, 10 mg/kg
  Brain concentrations quantifiable up to: up to 6 hr
  Vss, fold more than normal volume of total body water (0.7 L/kg): 6.6 fold
In vivo, iv, 10 mg/kg, 6 hr
  Plasma concentration, individual animal: 0.00 ng/mL
In vivo, iv, 10 mg/kg, 12 hr
  Brain concentration, individual animal: 0.00 ng/g
  Plasma concentration, individual animal: 0.00 ng/mL
In vivo, iv, 10 mg/kg, 24 hr
  Brain concentration, individual animal: 0.00 ng/g
  Plasma concentration, individual animal: 0.00 ng/mL
[8]
  concentration at 12 hr: 0 ng/g
  concentration at 24 hr: 0 ng/g
[9]
  concentration at 0.08 h: 1660 ng/g
  concentration at 0.35 h: 514 ng/g
  concentration at 1 h: 225 ng/g
  concentration at 3 h: 9.01 ng/g
  concentration at 6 hr: 5.13 ng/g
  concentration at 12 hr: 0 ng/g
  concentration at 24 hr: 0 ng/g
[10]
  concentration at 0.08 h: 1580 ng/mL
  concentration at 0.35 h: 535 ng/mL
  concentration at 1 h: 80.7 ng/mL
  concentration at 3 h: 5.64 ng/mL
  concentration at 6 hr: 0 ng/mL
  concentration at 12 hr: 0 ng/mL
  concentration at 24 hr: 0 ng/mL
[11]
  concentration at 0.08 hr: 2190 ng/mL
  concentration at 0.35 hr: 417 ng/mL
  concentration at 1 hr: 60.9 ng/mL
  concentration at 6 hr: 0 ng/mL
  concentration at 12 hr: 0 ng/mL
  concentration at 24 hr: 0 ng/mL
In vivo, po, 10 mg/kg
  Brain concentrations quantifiable up to: up to 12 hr
  Plasma concentrations quantifiable up to: up to 6 hr
In vivo, po, 10 mg/kg, 0.08 h
  Brain concentration, individual animal: 115.35 ng/g
In vivo, po, 10 mg/kg, 3 h
  Mean plasma conc.: 3.35^f ng/mL
In vivo, po, 10 mg/kg, 12 h
  Plasma concentration, individual animal: 0.00 ng/mL
In vivo, po, 10 mg/kg, 24 h
  Plasma concentration, individual animal: 0.00 ng/mL
[12]
  concentration at 0.08 h: 221 ng/g
  concentration at 24 h: 0 ng/g
[13]
  concentration at 0.08 h: 187 ng/g
  concentration at 0.35 h: 254 ng/g
  concentration at 1 h: 48.9 ng/g
  concentration at 3 h: 5.78 ng/g
  concentration at 6 h: 4.52 ng/g
  concentration at 12 h: 3.9 ng/g
  concentration at 24 h: 0 ng/g
[14]
  concentration at 0.08 h: 175 ng/mL
  concentration at 0.35 h: 138 ng/mL
  concentration at 1 h: 29.3 ng/mL
  concentration at 3 h: 3.35 ng/mL
  concentration at 6 h: 2.5 ng/mL
  concentration at 12 h: 0 ng/mL
  concentration at 24 h: 0 ng/mL
[15]
  concentration at 12 h: 0 ng/mL
  concentration at 24 h: 0 ng/mL
plasma, po, 10 mg/kg, PO 10 mg/kg, AUClast considered, read-out: Oral bioavailability, % F
  bioavailability: 20%
plasma, po, 10 mg/kg, summary data, read-out: Oral bioavailability
  bioavailability: 20%
plasma, IP 10 mg/kg
  Tmax: 4.8 min
plasma, IV 10 mg/kg, read-out: CL, plasma clearance
  clearance: 230 mL/min/kg
plasma, IV 10 mg/kg, read-out: T1/2, terminal elimination half-life (converted)
  half-life: 25.8 min
plasma, PO 10 mg/kg
  Tmax: 4.8 min

From patent US12215106B2, “Pharmaceutical compounds and therapeutic methods” (RUTGERS, THE STATE UNIVERSITY OF NEW JERSEY, priority 2018, dated 2025)
